What was measured:
[1] = tested on: neutrophil elastase (NE); assay: Bone marrow neutrophil elastase (NE) activity in lysates from mice of Example 1A; type: in vivo, C57BL/6 mice; settings: vs vehicle treated control group
Description: Following euthanasia, bone marrow (from both femurs and tibias) were collected, lysed, and then snap frozen. The frozen tissue was stored at −80° C.
Bone Marrow Neutrophil Activity: The ability of INS1007 to reduce neutrophil activation in DSS-induced colitis in C57BL/6 mice was evaluated. The neutrophil activity of bone marrow extracts taken from the euthanized mice of Example 1A was observed.
All animals from Example 1A had both femurs and tibias removed and bone marrow was aspirated out with ice-cold using Roswell Park Memorial Institute (RPMI) buffer. Cell pellets were collected after red blood cell lysis and wash with PBS. […]
For neutrophil elastase (NE) activity assay, bone marrow cell lysates were added to 96-well black plate and incubated for 15 minutes in the presence of DMSO or NE inhibitor (Abcam, Cat #ab142154). […] The resulting fluorescence was measured at 350 nm excitation and 450 nm emission in a kinetic mode by reading every 5 minutes for up to 3 hours at 37° C. The fluorescence was read using a BioTek Synergy plate reader. The reaction rate was calculated with the initial slopes of the linear range and a standard curve for the natural mouse elastase amounts were plotted against their slopes. The net NE activity (in the unit of natural mouse elastase amount) by subtracting the NE inhibitor control wells from non-inhibited well were calculated based on the standard curve.

[2] = tested on: colitis induced by the adoptive transfer of sorted naïve T cells into RAG2−/− mice; assay: Adoptive T-Cell Transfer Colitis Model, Example 2 (survival, endoscopy, stool consistency, body weight); type: in vivo
Description: The efficacy of INS1007 in the treatment of colitis induced by the adoptive transfer of sorted naïve T cells into RAG2^−/− mice (“Adoptive T-Cell Transfer Colitis Model”) was evaluated. The Adoptive T-Cell Transfer Colitis Model is an immunological animal model of colitis that provides focused and detailed examination of T cell-mediated pathological mechanisms, and generally responds well to established clinical therapies such as anti-TNFα. The model is described in detail in D. V. Ostanin, et al., T cell transfer model of chronic colitis: concepts, considerations, and tricks of the trade. Am. J. Physiol. Gastrointest. Liver Physiol. 2009; 296(2): G135-46, which is hereby incorporated by reference in its entirety for all purposes.
Example 2 evaluated the effectiveness of INS1007 dosed at 0.3 mg/kg, 1.0 mg/kg, 3.0 mg/kg and 10 mg/kg in the Adoptive T-Cell Transfer Colitis Model. Vehicle (negative control) and an anti-p40 mAb antibody (positive control) were also evaluated.
Mice: Ninety-five (95) male RAG2^−/− mice (n=95) with an average starting body weight (±SEM) of 21.3±0.12 g were obtained from Taconic Biosciences (Germantown, N.Y.). Animals were acclimatized prior to study commencement. During this period, the animals were observed daily in order to reject any that presented in poor condition. Animals were fed with 5053 sterile rodent diet and water was provided ad libitum.
INS1007 Solutions: INS1007 was diluted with 0.5% Hydroxypropylmethylcellulose in Citrate buffer w/0.1% Tween 80 (pH 3.0). Solutions were stored at 4° C. INS1007 solutions were discarded after 3 days and fresh solutions were prepared.
Anti-p40 mAb solution: Anti-mouse IL-12 p40 (Clone: C17.8) obtained from BioXCell (Cat #: BE0051) was diluted with phosphate buffered saline. Solutions were stored at 4° C. Anti-mouse IL-12 p40 solutions were discarded after 7 days and fresh solutions were prepared.
Groups 1-2 were negative controls; groups 3-6 were treated with INS 1007 and Group 7 was treated with Anti-p40 mAb.
The study included two phases: a T-cell transfer colitis-induction period (T-cell engraftment in FIG. 14) and a treatment period (Veh/1007 TX in FIG. 14). Colitis was induced on Day 0 in 90 RAG2^−/− mice by IP injection (200 μL) of 0.5×10^6 CD44^−/CD62L^+ T-cells (in PBS) isolated and purified from C57Bl/6 […]. Donor cells were processed as follows. Whole spleens were excised from donor C57BL/6 mice and were immediately placed ice-cold PBS. The spleens were dissociated to yield a single cell suspension and the red blood cells were lysed. Spleens were then processed for CD4+ enrichment prior to CD44-CD62L^+ sorting using Miltenyi MACS columns.
Animals in Groups 1-6 were dosed via oral gavage (PO) twice daily (BID) from Days 14 to 41 with INS1007 Solution or vehicle, as indicated in Table 4. Animals in Group 7 were dosed via intraperitoneal (IP) injection once every third day (Q3D) from Day 14 to 39 with Anti-p40 mAb solution.
Animals were observed daily (weight morbidity, survival, presence of diarrhea and/or bloody stool) to assess differences among treatment groups and/or possible toxicity resulting from the treatments.
Each mouse, under isoflurane anesthesia, underwent video endoscopy on Days 14, 28, and 42 using a small animal endoscope (Karl Storz Endoskope, Germany), to assess colitis severity. During each endoscopic procedure, still images and video were recorded to evaluate the extent of colitis and the response to treatment. Colitis severity and Stool consistency were scored using the methods described in Examples 1 and 2. Following endoscopy on day 42, all animals from each treatment group were sacrificed. Following euthanasia, bone marrow (from both femurs and tibias) were collected, lysed, and then snap frozen. The frozen tissue was stored at −80° C.
Weight Loss: Weight loss calculated as a percentage of the starting weight on Day 0 was recorded in all treatment groups.

[3] = Day 28, INS1007 1 mg/kg (Group 4)
[4] = Day 28, INS1007 3 mg/kg (Group 5)
[5] = Day 28, INS1007 10 mg/kg (Group 6)
[6] = Day 42, INS1007 1 mg/kg (Group 4)
[7] = Day 42, INS1007 3 mg/kg (Group 5)
[8] = Day 42, INS1007 10 mg/kg (Group 6)

Cn1c(=O)oc2ccc(-c3ccc(C[C@@H](C#N)NC(=O)[C@@H]4CNCCCO4)cc3)cc21 [INS1007, (2S)—N-{(1S)-1-cyano-2-[4-(3-methyl-2-oxo-2,3-dihydro-1,3-benzoxazol-5-yl)phenyl]ethyl}-1,4-oxazepane-2-carboxamide]
bone marrow neutrophil activity (NE activity) ([1]; INS1007 1 mg/kg PO BID): significantly reduced | bone marrow neutrophil activity (NE activity) ([1]; INS1007 10 mg/kg PO BID): significantly reduced | reduction in mean endoscopy score as compared to vehicle control (Group 2) ([2]; Day 14, INS1007 3 mg/kg (Group 5)): 22.2% | mean stool consistency score vs vehicle control (Group 2) [2, 3]: reductions | reduction in mean endoscopy score as compared to vehicle control (Group 2) [2, 3]: 38.4% | mean stool consistency score vs vehicle control (Group 2) [2, 4]: reductions | reduction in mean endoscopy score as compared to vehicle control (Group 2) [2, 4]: 39.5% | mean stool consistency score vs vehicle control (Group 2) [2, 5]: reductions | reduction in mean endoscopy score as compared to vehicle control (Group 2) [2, 5]: 15.3% | mean stool consistency score vs vehicle control (Group 2) [2, 6]: reductions | reduction in mean endoscopy score as compared to vehicle control (Group 2) [2, 6]: 33.5% | mean stool consistency score vs vehicle control (Group 2) [2, 7]: reductions | reduction in mean endoscopy score as compared to vehicle control (Group 2) [2, 7]: 42.7% | mean stool consistency score vs vehicle control (Group 2) [2, 8]: largest reductions | reduction in mean endoscopy score as compared to vehicle control (Group 2) [2, 8]: 35.0% | weight loss compared to vehicle control (Group 2), body weight carried forward ([2]; INS1007 3 mg/kg (Group 5), Days 0 to 42): reduced | survival vs vehicle control ([2]; INS1007 3 mg/kg (Group 5), log-rank test): significantly improved | survival ([2]; INS1007 3 mg/kg PO BID Day 14 to 41 (Group 5), Days 0 to 42, vehicle control 53.3%): 95.86%

Source: patent US20210252015A1, “CERTAIN (2S)-N-[(1S)-1-CYANO-2-PHENYLETHYL]-1,4-OXAZEPANE-2-CARBOXAMIDES FOR TREATING INFLAMMATORY BOWEL DISEASE” (Insmed Incorporated, priority 2018, published 2021)
